{"source": "patent US20060110371A1", "about": "“Control of indoleamine 2,3 deoxygenase expression and activity” (INSTITUT PASTEUR, priority 2004, published 2006)", "key": {"tumors expressing IDO": {"tested_on": "tumors expressing IDO", "conditions": "mice with IDO-transfected tumors; cited from earlier work"}, "IDO mRNA": {"tested_on": "IDO mRNA", "experiment": "IDO mRNA expression by quantitative RT-PCR in monocyte-derived DCs", "format": "cell-based, human", "conditions": "for effect on IDO mRNA levels induced by PGE2 or forskolin plus TNFα: inhibitor present during 48 hrs culture", "protocol": "Isolation and preparation of cells. Peripheral blood mononuclear cells (PBMCs), DCs and T cells were prepared as described. Briefly, buffy coats were obtained from normal donors (EFS, Rungis) and PBMCs were isolated by sedimentation over Ficoll-Hypaque (Pharmacia Biotech, Piscataway, N.J.). CD 14-enriched and CD-14-depleted fractions were prepared by the use of CD14 Miltenyi microbeads followed by magnetic cell sorting according to the manufacturers' instruction (Miltenyi Biotech, Auburn, Calif.). Immature DCs were prepared by the use of CD14+ fraction by culturing cells in the presence of GM-CSF (Berlix, Seattle, Wash.) and IL-4 (R&D Systems, Minneapolis, Minn.) for 7 days. GM-CSF (1000 U/ml) and IL-4 (500 U/ml) were added to the cultures on days 0, 2, and 4. To generate mature DCs, the cultures were transferred to fresh wells on days 6-7 and the indicated maturation stimulus was added for an additional 1-2 days. At days 6-7, >95% of the cells were CD13^−CD83^−HLA-r^lo DCs. After maturation, on days 8-9, 70-95% of the cells were of the mature […] phenotype. CD4+ and CD8+ T cells were purified from the CD14− fraction to >99% purity by positive selection with the MACS column purification system.\nQuantitative analysis of IDO mRNA expression. IDO mRNA detection by real-time PCR. Briefly, RNA was extracted by Tri-reagent (Sigma) and cDNA was synthesized from 1-2 μg RNA using oligo dT (Roche) and Superscript reverse transcriptase (Invitrogen) according to manufacturers' instructions. IDO specific mRNA is quantified relative to GAPDH or TBP (TATA box Binding Protein) using the following primers: IDO forward: 5′[…]-3′ (SEQ ID NO:1), IDO reverse: 5′-[…]-3′ (SEQ ID NO:2), GAPDH forward: 5′[…]-3′ (SEQ ID NO:3), GAPDH reverse: 5′-[…]-3′ (SEQ ID NO:4) TBP forward: 5′-[…]-3′ (SEQ ID NO: 5); TBP reverse: 5′-[…]-3′ (SEQ ID NO: 6),Primers for EP receptors are described in Kamphuis et al. Invest Ophthalmol Vis Sci. 42, 3209-3215 (2001). Quantitative RT-PCR was performed using the SYBR® Green JumpStart™ Taq ReadyMix™ (Sigma) according to manufacturer's instructions. The reactions were run on a PTC200 equipped with a Chromo4™ detector (MJ Research, Mass., USA). […] The ratio gene of interest/housekeeping genes was calculated according to the formula: ratio=2^−dCt (dCT=mean Ct gene−mean Ct housekeeping). […]\nBased on IDO's proposed role in immune tolerance, the present inventors evaluated the effect of different DC maturation stimuli on IDO expression. […] The present inventors first established assays to monitor IDO mRNA expression using realtime quantitative RT-PCR (qPCR), and Western blot. RNA was extracted from immature DCs (iDC) exposed to distinct maturation stimuli and IDO expression was quantified as described in the Materials and Methods."}, "EP2": {"tested_on": "EP2", "experiment": "EP2 mRNA expression in DCs by quantitative RT-PCR", "format": "cell-based, human", "conditions": "relative to TBP", "method": "(A) The present inventors monitored EP2 and EP4 mRNA expression in DCs exposed to TNFα, PGE2 or a combination of both stimuli. TBP was used as a reference for our qPCR studies as its expression levels matched that of the EP-Rs. White bars represent EP2 levels; black bars indicated EP4 expression. […] All were used at a concentration of 50 μM.\nBriefly, RNA was extracted by Tri-reagent (Sigma) and cDNA was synthesized from 1-2 μg RNA using oligo dT (Roche) and Superscript reverse transcriptase (Invitrogen) according to manufacturers' instructions. […] Quantitative RT-PCR was performed using the SYBR® Green JumpStart™ Taq ReadyMix™ (Sigma) according to manufacturer's instructions. The reactions were run on a PTC200 equipped with a Chromo4™ detector (MJ Research, Mass., USA). […] All the measures were performed in duplicates and validated when the difference in Ct between the 2 measures was less than 0.3. […] The ratio gene of interest/housekeeping genes was calculated according to the formula: ratio=2^−dCt (dCT=mean Ct gene−mean Ct housekeeping). GAPDH and TBP were used to normalize for IDO and EP-receptor mRNA expression, respectively."}, "[1]": {"target": "human prostanoid receptors", "conditions": "four receptors (EP1-4) binding PGE2 with high affinity; cited from earlier work"}, "IDO": {"tested_on": "IDO", "experiment": "IDO enzymatic activity, kynurenine by colorimetric assay (Ehrlich's reagent), in monocyte-derived DCs", "format": "cell-based, human", "protocol": "Determination of IDO enzymatic activity and Kynurenine assays. Tryptophan is catabolized by IDO to N-formylkynrenine, which is rapidly converted to kynurenine. Measurement of kynurenine levels is a surrogate marker for IDO activity.\nExcept where stated, cells were incubated for an additional 4 hours, followed by harvest of supernatant and quantitation of kynurenine by HPLC or using a colormetric assay.\nAlternatively, kynurenine concentrations in the culture supernatants were measured using a colormetric assay (i.e., spectrophotometrically). 50 μl of 30% trichloroacetic acid was added to 100 μl of the culture supernatant, vortexed, and then centrifuged at 10,000 rpm for 5 minutes. A 75 μl volume of the supernatant was added to 75 μl of Ehrlich's reagent (100 mg of […], 5 ml of glacial acetic acid) in a microtiter plate well (96-well format). Optical density was measured at 480 nm filter with a Multiskan MS (Labsystems) microplate reader. The values were referred to a standard curve of defined kynurenine concentrations ([…]).\nTo validate this approach, the present inventors established a standard curve for quantifying kynurenine and compared the experimental values obtained using the calorimetric assay with those from the HPLC analysis."}}, "data": [{"compound": "Cn1cc(C[C@@H](N)C(=O)O)c2ccccc21", "note": "[1-MT, 1-Methyl-D-tryptophan]", "values": [{"measurement": "protective tumor immunity", "setting": "tumors expressing IDO", "value": "recovered the ability to establish protective immunity"}]}, {"compound": "O=S(=O)(NCCNC/C=C/c1ccc(Br)cc1)c1cccc2cnccc12", "note": "[H-89]", "values": [{"measurement": "effect on IDO mRNA levels induced by PGE2 or forskolin plus TNFα", "setting": "IDO mRNA", "value": "block IDO expression"}]}, {"compound": "CCCCC[C@H](O)/C=C/[C@H]1[C@H](O)CC(=O)[C@@H]1C/C=C\\CCCC(=O)O", "note": "[PGE2, prostaglandin E2]", "values": [{"measurement": "EP2 mRNA expression", "setting": "EP2", "value": "down-regulation of EP2"}, {"measurement": "increase in transcription of IDO", "setting": "IDO mRNA; PGE2 treated DCs vs iDCs", "value": "50-200 fold"}, {"measurement": "Kd", "setting": "[1]", "value": "low nM range"}, {"measurement": "IDO activity (kynurenine, colorimetric), stimulus alone", "setting": "IDO; DCs treated with the stimulus alone", "value": "lacked measurable IDO activity"}]}, {"compound": "Nc1ncnc2c1ncn2C1CCCO1", "note": "(centres unmarked) [SQ22536]", "values": [{"measurement": "effect on IDO mRNA levels induced by PGE2 or forskolin plus TNFα", "setting": "IDO mRNA", "value": "block IDO expression"}, {"measurement": "effect on IDO activity of PGE2/forskolin +/- TNFα matured DC", "setting": "IDO; inhibitor added during 48 hrs maturation", "value": "blocks IDO expression/activity"}, {"measurement": "optimal inhibitor concentration against forskolin-induced IDO", "setting": "IDO; titrated", "value": 1, "unit": "mM"}]}, {"compound": "CCCC1([C@H](O)C/C=C/[C@H]2[C@H](O)CC(=O)[C@@H]2CCCCCCC(=O)OC)CCC1", "note": "[butaprost, Butaprost]", "values": [{"measurement": "IDO activity in the presence of TNFα (PGE2 replaced)", "setting": "IDO; iDCs treated in combination with TNFα, 48 hrs", "value": "resulted in the induction of IDO activity"}]}, {"compound": "TNFα", "values": [{"measurement": "IDO mRNA expression (in words)", "setting": "IDO mRNA; iDCs exposed to the stimulus", "value": "did not upregulate IDO expression"}]}]}
